In patent publication US20160108039A1, “TRIAZOLOPYRIDINES AS THROMBIN INHIBITORS FOR THE TREATMENT OF THROMBOEMBOLIC DISEASES” (BAYER PHARMA AKTIENGESELLSCHAFT, priority 2013, published 2016):

Assays:
thrombin [1] = biological target: T1, thrombin (Homo sapiens, UniProt P00734); test: Thrombin-inhibitory activity in plasma samples (ecarin-activated); type: biochemical; conditions: citrate plasma, ecarin activation, fluorogenic thrombin substrate; read at about 70% of maximum signal (about 12 min); in some cases means
Procedure: To determine the inhibition of thrombin in plasma samples, plasma prothrombinase is activated by ecarin. Thrombin activity and/or its inhibition by potential inhibitors is/are then measured fluorescently by addition of a substrate.
The substances to be tested are dissolved in various concentrations in dimethyl sulphoxide and diluted with water. In white 96-well flat-bottomed plates, 20 μl of substance dilution are mixed with 20 μl of ecarin solution (ecarin reagent, from Sigma E-0504, final concentration 20 mU per reaction) in Ca buffer (200 mM Hepes+560 mM sodium chloride+10 mM calcium chloride+0.4% PEG) or with 20 μl of Ca buffer (as unstimulated control). Furthermore, 20 μl of fluorogenic thrombin substrate (from Bachem 1-1120, final concentration 50 μmol/l) and 20 μl of citrate plasma (from Octapharma) are added, and the mixture is homogenized well. The plate is measured in a SpectraFluorplus Reader using a 360 nm excitation filter and a 465 nm emission filter every minute over 20 minutes. […] Representative activity data from this test are given in Table 2 below (in some cases as means of individual determinations): […]

thrombin [2] = biological target: T1, thrombin; test: Measurement of the thrombin inhibition in buffer; type: biochemical; conditions: human thrombin 0.06 nmol/l in Tris buffer pH 7.4, 22° C., substrate Boc-Asp(OBzl)-Pro-Arg-AMC; in some cases means of individual determinations
In short: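 Compound pre-incubated 15 min at 22° C with 0.06 nmol/l human thrombin in 50 mmol/l Tris, 100 mmol/l NaCl, 0.1% BSA, pH 7.4, then 5 μmol/l Boc-Asp(OBzl)-Pro-Arg-AMC added for 30 min. AMC fluorescence read at 360/460 nm against DMSO controls; IC50 from concentration–activity curves.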

| SMILES | IC50 (thrombin [1]) [nM] | IC50 (thrombin [2]) [nM] |
| --- | --- | --- |
| COc1cc(C(=O)N2CC3CCN3C(=O)C2C)cn2nc(NCc3cccc(Cl)c3)nc12 (single isomer, unassigned) [Example 61, 4-({2-[(3-Chlorobenzyl)amino]-8-methoxy[1,2,4]triazolo[1,5-a]pyridin-6-yl}carbonyl)-3-methyl-1,4-diazabicyclo[4.2.0]octan-2-one] | 17 | 23 |
| COc1cc(C(=O)N2CC3(CC3)NC(=O)C2C)cn2nc(NCc3cccc(Cl)c3)nc12 (single isomer, unassigned) [Example 62, 7-({2-[(3-Chlorobenzyl)amino]-8-methoxy[1,2,4]triazolo[1,5-a]pyridin-6-yl}carbonyl)-6-methyl-4,7-diazaspiro[2.5]octan-5-one] | 39 | 17 |
| CCC1C(=O)NC(C)CN1C(=O)c1cc(OC)c2nc(NCc3cccc(Cl)c3)nn2c1 (single isomer, unassigned) [Example 63, 4-({2-[(3-Chlorobenzyl)amino]-8-methoxy[1,2,4]triazolo[1,5-a]pyridin-6-yl}carbonyl)-3-ethyl-6-methylpiperazin-2-one] | 24 | 9.8 |
| COc1cc(C(=O)N2CC(C)(C)OCC2C(C)(C)O)cn2nc(NCc3cccc(Cl)c3)nc12 (single isomer, unassigned) [Example 66, {2-[(3-Chlorobenzyl)amino]-8-methoxy[1,2,4]triazolo[1,5-a]pyridin-6-yl}[5-(2-hydroxypropan-2-yl)-2,2-dimethylmorpholin-4-yl]methanone] | 24 | 25 |
| COc1cc(C(=O)N2CC(C)(C)OCC2C2(O)CC2)cn2nc(NCc3cccc(Cl)c3)nc12 (single isomer, unassigned) [Example 67, {2-[(3-Chlorobenzyl)amino]-8-methoxy[1,2,4]triazolo[1,5-a]pyridin-6-yl}[5-(1-hydroxycyclopropyl)-2,2-dimethylmorpholin-4-yl]methanone] | 90 | 48 |
| COc1cc(C(=O)N2CC(C)OCC2C2CC(O)C2)cn2nc(NCc3cccc(Cl)c3)nc12 (stereo not shown) [Example 2, {2-[(3-Chlorobenzyl)amino]-8-methoxy[1,2,4]triazolo[1,5-a]pyridin-6-yl}[5-(3-hydroxycyclobutyl)-2-methylmorpholin-4-yl]methanone] | 20 | 19 |
| COc1cc(C(=O)N2CC(C)(C)OC[C@H]2CCO)cn2nc(NCc3cccc(Cl)c3)nc12 [Example 7, {2-[(3-Chlorobenzyl)amino]-8-methoxy[1,2,4]triazolo[1,5-a]pyridin-6-yl}[(5R)-5-(2-hydroxyethyl)-2,2-dimethylmorpholin-4-yl]methanone] | 24 | 20 |
| COc1cc(C(=O)N2CC(C)(C)OCC2CC(C)O)cn2nc(NCc3cccc(Cl)c3)nc12 (stereo not shown) [Example 45, {2-[(3-Chlorobenzyl)amino]-8-methoxy[1,2,4]triazolo[1,5-a]pyridin-6-yl}[5-(2-hydroxypropyl)-2,2-dimethylmorpholin-4-yl]methanone] | 34 | 33 |
| COc1cc(C(=O)N2CC(C)(CCO)OCC2CF)cn2nc(NCc3cccc(Cl)c3)nc12 (stereo not shown) [Example 50, {2-[(3-Chlorobenzyl)amino]-8-methoxy[1,2,4]triazolo[1,5-a]pyridin-6-yl}[5-(fluoromethyl)-2-(2-hydroxyethyl)-2-methylmorpholin-4-yl]methanone] | 122 | 18 |
| CCC1C(=O)N2CCC2CN1C(=O)c1cc(OC)c2nc(NCc3cccc(Cl)c3)nn2c1 (stereo not shown) [Example 58, 4-({2-[(3-Chlorobenzyl)amino]-8-methoxy[1,2,4]triazolo[1,5-a]pyridin-6-yl}carbonyl)-3-ethyl-1,4-diazabicyclo[4.2.0]octan-2-one] | 39 | 36 |
| COc1cc(C(=O)N2CC(C)CCC2CCO)cn2nc(NCc3cccc(Cl)c3)nc12 (stereo not shown) [Example 64, {2-[(3-Chlorobenzyl)amino]-8-methoxy[1,2,4]triazolo[1,5-a]pyridin-6-yl}[2-(2-hydroxyethyl)-5-methylpiperidin-1-yl]methanone] | 63 | 25 |
| COc1cc(C(=O)N2CC(C)CCC2C(N)=O)cn2nc(NCc3cccc(Cl)c3)nc12 (stereo not shown) [Example 65, 1-({2-[(3-Chlorobenzyl)amino]-8-methoxy[1,2,4]triazolo[1,5-a]pyridin-6-yl}carbonyl)-5-methylpiperidine-2-carboxamide] | 102 | 8.9 |

The next lines start with the values.

| IC50 (thrombin [1]) [nM] | IC50 (thrombin [2]) [nM] | SMILES |
| --- | --- | --- |
| 106 | 49 | COc1cc(C(=O)N2CC(C)(C)OCC2C(C)O)cn2nc(NCc3cccc(Cl)c3)nc12 (single isomer, unassigned) [Example 68, {2-[(3-Chlorobenzyl)amino]-8-methoxy[1,2,4]triazolo[1,5-a]pyridin-6-yl}[5-(1-hydroxyethyl)-2,2-dimethylmorpholin-4-yl]methanone] |
| 35 | 6.1 | CC[C@@H]1COC(C)(CCO)CN1C(=O)c1cc(OC)c2nc(NCc3cccc(Cl)c3)nn2c1 (single isomer, unassigned) [Example 70] |
| 34 | 13 | COCC1COC(C)(CCO)CN1C(=O)c1cc(OC)c2nc(NCc3cccc(Cl)c3)nn2c1 (single isomer, unassigned) [Example 72, {2-[(3-Chlorobenzyl)amino]-8-methoxy[1,2,4]triazolo[1,5-a]pyridin-6-yl}[2-(2-hydroxyethyl)-5-(methoxymethyl)-2-methylmorpholin-4-yl]methanone] |
| 19 | 19 | [2H]C([2H])(C)O[C@@H]1CC(CO)N(C(=O)c2cc(OC)c3nc(NCc4cccc(Cl)c4)nn3c2)C1 (single isomer, unassigned) [Example 74] |
| 74 | 23 | COc1cc(C(=O)N2C[C@H](OCC(F)F)CC2CO)cn2nc(NCc3cccc(Cl)c3)nc12 (single isomer, unassigned) [Example 75] |
| 5.9 | 6.4 | COc1cc(C(=O)N2CC3CCN3C(=O)C2C)cn2nc(NC(CF)c3cccc(Cl)c3)nc12 (single isomer, unassigned) [Example 77, 4-[(2-{[1-(3-Chlorophenyl)-2-fluoroethyl]amino}-8-methoxy[1,2,4]triazolo[1,5-a]pyridin-6-yl)carbonyl]-3-methyl-1,4-diazabicyclo[4.2.0]octan-2-one] |
| 39 | 25 | CC[C@@H]1COC(C)(CCO)CN1C(=O)c1cc(OC)c2nc(NCc3cccc(Cl)c3)nn2c1 (stereo partly drawn) [Example 69, {2-[(3-Chlorobenzyl)amino]-8-methoxy[1,2,4]triazolo[1,5-a]pyridin-6-yl}[(5R)-5-ethyl-2-(2-hydroxyethyl)-2-methylmorpholin-4-yl]methanone] |
| 87 | 35 | COCC1COC(C)(CCO)CN1C(=O)c1cc(OC)c2nc(NCc3cccc(Cl)c3)nn2c1 (stereo not shown) [Example 71, {2-[(3-Chlorobenzyl)amino]-8-methoxy[1,2,4]triazolo[1,5-a]pyridin-6-yl}[2-(2-hydroxyethyl)-5-(methoxymethyl)-2-methylmorpholin-4-yl]methanone] |
